From patent US6300320A, “Modulation of c-jun using inhibitors of protein kinase C” (Isis Pharmaceuticals, Inc., priority 1999, dated 2001)

Test system: c-jun mRNA expression in A549 cells
Experiment: Phorbol ester (TPA) mediated AP-1 gene expression in A549 cells, Northern blotting
Assay type: cell-based
Settings: Homo sapiens, 0.5 h, 100 nM TPA for 30 minutes, no oligo, basal = 100%
Procedure: The effect of PKC-α reduction on AP-1 transcription factor components was determined. 12-O-tetradecanoylphorbol-13-acetate (TPA) causes a time dependent accumulation of mRNA transcripts of multiple members of AP-1, including c-jun, jun-B and c-fos.
A549 cells were treated with 100 nM ISIS 9606 (SEQ ID NO. 2) or ISIS 13009 (SEQ ID NO. 23) and DOTMA/DOPE as described in Example 13. Cells were then washed and allowed to recover for an additional 68 hours. Cells were then treated with 100 nM TPA for 30 minutes and the expression of either c-fos, jun-B, c-jun or G3PDH mRNA expression was determined by Northern blotting.
Total RNA was extracted from cells and resolved on agarose gels as described in Example 6. These were transferred to nylon membrane (Biorad, Hercules, Calif.) and probed with ^32 P radiolabelled cDNA probes for different PKC isozymes. Additionally, gels were probed with ^32 P radiolabelled cDNA probes for c-fos, c-jun, and junB (American Type Culture Collection, Manassas, Va.). Gels were routinely stripped and reprobed with radiolabelled human […]-3-phosphate dehydrogenase (G3PDH) probe to confirm equal loading. Radioactive bands were quantified using a Phospholmager (Molecular Dynamics, Sunnyvale, Calif.). […] A scrambled control oligonucleotide was without effect on the up-regulation of any AP-1 family member. […]

CCCCCCCCCCCCCC(=O)O[C@@H]1[C@@H](C)[C@@]2(O)[C@@H](C=C(CO)C[C@]3(O)C(=O)C(C)=C[C@@H]23)[C@@H]2C(C)(C)[C@]12OC(C)=O [TPA, 12-O-tetradecanoylphorbol-13-acetate]
activity at 0.1 µM: 353%
